Like-named read-outs stand apart in the source and are kept apart here.
Experiments:
AGS cells = experiment: CCK-8 cell proliferation assay, AGS; format: cell-based; details: Homo sapiens, CCK-8, Fig. 3
Experimental: (§1) During the logarithmic growth phase, each cell line was seeded in a 96-well tissue culture plate (Thermo Fisher Scientific, Waltham, MA, USA) at a predetermined density in complete medium, attached overnight and treated with compound for the indicated time. The medium was discarded and replaced with 10% CCK-8 (Dojindo, Kumamoto, Japan) in complete medium, then incubated the plates for another 2 h. The OD450 was measured with SpectraMax M5 (Molecular Devices, CA, USA). A background absorbance of ODblank was subtracted from all wells. The survival rate was determined with following formula: Survival rate (%) = ODcompound/ODDMSO × 100%. The IC50 values were calculated by concentration − response curve fitting using the four parameter method.

p-Aurora A (T288) = experiment: Cellular Aurora A phosphorylation (western blot, immunofluorescence) in MGC-803 cells; format: cell-based, human
Experimental: The proteins of whole cell lysates were prepared in RIPA buffer containing protease and phosphatase inhibitors (Thermo Fisher Scientific, Waltham, MA, USA), and quantified by the bicinchoninic acid (BCA) method. Immunoblotting analysis of proteins in cell lysates was performed as previously described. Primary antibodies used were as follows: anti-Aurora A (#12100), anti-p-Aurora A (Thr288) (#3079), anti-Histone H3 (#4499), and anti-p-Histone H3 (Ser10) (#9701), and anti-cleaved caspase 3 (#9661) were purchased from Cell Signaling Technology (Danvers, MA, USA); anti-PARP-1 (#sc-8007) and anti-GAPDH (#sc-25778) were purchased from Santa Cruz (CA, USA).
Cells were cultured on glass slides coated with 0.05 mg/ml PDL (Sigma-aldrich, St. Louis, MO, USA) in the presence of TY-011 (0.8 μM) or equivalent amount of DMSO for 24 h. The cells were fixed in 4% paraformaldehyde at room temperature, then permeabilized with 0.15% Triton-X100 and blocked in 3% BSA in PBS. The primary antibodies were incubated with slides at 1:100 dilution in PBS containing 3% BSA in a wet chamber at 4 °C overnight. […] The images were captured with FCFM (fluorescence confocal microscope) (Olympus FV1000 IX81, Tokyo, Japan) under appropriate excitation and emission filters or phase-contrast microscope (Olympus IX73, Tokyo, Japan). […]

Aurora A = target: T1, Aurora A (Homo sapiens, UniProt O14965); experiment: HTRF KinEASE-STK kinase assay, Aurora A; format: biochemical
T1 construct: gift from Professor Jia Li, Shanghai Institute of Materia Medica/Chinese Academy of Sciences
T1 sequence (O14965 1-403): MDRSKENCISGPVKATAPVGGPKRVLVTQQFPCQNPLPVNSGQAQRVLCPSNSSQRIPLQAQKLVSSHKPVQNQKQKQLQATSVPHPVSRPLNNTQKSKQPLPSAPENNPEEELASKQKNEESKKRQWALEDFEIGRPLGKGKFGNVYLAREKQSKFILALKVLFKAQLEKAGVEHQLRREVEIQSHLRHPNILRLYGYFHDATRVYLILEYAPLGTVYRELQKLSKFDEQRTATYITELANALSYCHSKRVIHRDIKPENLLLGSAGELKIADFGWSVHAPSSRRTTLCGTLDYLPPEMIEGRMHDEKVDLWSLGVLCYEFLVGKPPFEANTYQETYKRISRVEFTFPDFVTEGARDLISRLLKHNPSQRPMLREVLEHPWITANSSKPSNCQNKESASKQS
Text: The inhibition of TY-011 on activity of Aurora A, Aurora B and VEGFR2 was characterized by HTRF® KinEASE™-STK/TK kit according to the manufacturer’s instructions (Cisbio Assays, Codolet, France). Aurora A and Aurora B were gifts from Professor Jia Li, Shanghai Institute of Materia Medica/Chinese Academy of Sciences. VEGFR2 was purchased from Carna Biosciences (Kobe, Japan).

SNU-16 cells = experiment: CCK-8 cell proliferation assay, SNU-16; format: cell-based; details: Homo sapiens; SNU-16, CCK-8, Fig. 3
Experimental: as §1

SGC-7901 cells [1] = experiment: Cell cycle analysis by flow cytometry, SGC-7901; format: cell-based, human
Experimental: (§2) Cell cycle distribution was determined by flow cytometry measurement of DNA content after cells were incubated with RNase A (50 μg/ml) and propidium iodide (50 μg/ml). The cellular DNA content was measured on a flow cytometer (Guava EasyCyte 6HT-2 L, Merck Millipore, Billerica, MA, USA). The percentage of each population was analyzed using the InCyte software. At least 20 000 cells were analyzed for each data point.

SGC-7901 cells [2] = experiment: CCK-8 cell proliferation assay, SGC-7901; format: cell-based; details: Homo sapiens; SGC-7901, CCK-8, Fig. 3
Experimental: as §1

MGC-803 cells = experiment: Cell cycle analysis by flow cytometry, MGC-803; format: cell-based, human
Experimental: as §2

In the case of `CCc1cc2c(cn1)C(c1ccccc1Cl)=Nc1c(n[nH]c1C)N2` [TY-011, 9-(2-chloro-phenyl)-6-ephyl-1-methyl-2,4-dihydro-2,3,4,7,10-pentaaza-benzo[f]azulene], the IC50 (AGS cells) is reported as 960 ± 100 nM, the “Aurora A green foci in mitotic cells, immunofluorescence” value (p-Aurora A (T288); MGC-803, 0.8 μM, 24 h) is reported as “became weaker or even disappeared” and the “p-Aurora A (T288), western blot” value (p-Aurora A (T288); MGC-803 synchronized with nocodazole (100 nM) 16 h, then various concentrations for 24 h) is reported as “decreased in a concentration-dependent manner”. It also gave an IC50 (Aurora A; Table S1, read-out: IC50 Aurora A) of 100 nM, an IC50 (Aurora A; mean ± SD of three independent experiments, read-out: Aurora A IC50) of 102 ± 10.1 nM and an IC50 (SNU-16 cells) of 90 ± 20 nM. For the same compound, the G2/M phase cells (SGC-7901 cells [1]; SGC-7901, 0.5 μM, 12 h (from 31.6%)) was 45.1%, the “cells with >4 N DNA content” value (SGC-7901 cells [1]; SGC-7901, 0.5 μM, 48 h) was 13.9% and the “proportion of cells with >4 N DNA content” value (SGC-7901 cells [1]; SGC-7901, 1 μM, 24 h (6.7% no treatment)) was 14.7%. The “proportion of G2/M phase cells” value (SGC-7901 cells [1]; SGC-7901, 1 μM, 24 h (34.0% no treatment)) was 78.6%, the IC50 (SGC-7901 cells [2]) was 570 ± 30 nM and the G2/M phase cells (MGC-803 cells; MGC-803, 0.2 μM, 12 h (from 26.4%)) was 51.4%. The “cells with >4 N DNA content” value (MGC-803 cells; MGC-803, 0.2 μM, 48 h) was 39.8%, the “proportion of cells with >4 N DNA content” value (MGC-803 cells; MGC-803, 0.4 μM, 24 h (4.3% no treatment)) was 29.5% and the “proportion of G2/M phase cells” value (MGC-803 cells; MGC-803, 0.4 μM, 24 h (28.8% no treatment)) was 65.0%.

Source: article PMC5124248, “Antitumor activity of TY-011 against gastric cancer by inhibiting Aurora A, Aurora B and VEGFR2 kinases” (Journal of Experimental & Clinical Cancer Research : CR, 2016)
